Consider one compound from ChEMBL document CHEMBL5725610, “Phosphonate compounds” (2018).

For this assay, the target named is Protease (Human immunodeficiency virus 1, UniProt Q9YQ12).
Chain of Protease (Q9YQ12 whole entry): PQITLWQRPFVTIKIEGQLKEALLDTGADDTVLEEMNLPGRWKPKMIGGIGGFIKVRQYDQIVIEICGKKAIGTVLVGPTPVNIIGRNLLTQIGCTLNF

By EC50 is commonly meant the concentration that produces a half-maximal response. Higher therefore signals weaker potency. Regarding `Nc1ncnc2c1ncn2CCOCP(=O)(O)O` [ADEFOVIR], the EC50 came out at 16 µM.
